Data from the NIST ThermoML archive (doi:10.1016/j.jct.2006.05.008).

Test: molar heat capacity at constant pressure
Details: 101.33 kPa, Small (less than 1 g) adiabatic calorimetry

CCCCn1cc[n+](C)c1.[Br-] [1-butyl-3-methylimidazolium bromide]
Details | molar heat capacity at constant pressure [J/K/mol]
5 K, Crystal | 0.594
5.112 K, Crystal | 0.6398
5.416 K, Glass | 1.391
5.455 K, Crystal | 0.7976
5.698 K, Glass | 1.608
5.764 K, Crystal | 0.9598
6.014 K, Glass | 1.871
6.078 K, Crystal | 1.144
6.368 K, Glass | 2.187
6.428 K, Crystal | 1.37
6.758 K, Glass | 2.559
6.809 K, Crystal | 1.648
7.151 K, Glass | 2.969
7.192 K, Crystal | 1.957
7.546 K, Glass | 3.418
7.578 K, Crystal | 2.288
7.943 K, Glass | 3.889
7.966 K, Crystal | 2.656
8.343 K, Glass | 4.396
8.356 K, Crystal | 3.052
8.743 K, Glass | 4.921
8.747 K, Crystal | 3.473
9.141 K, Crystal | 3.927
9.142 K, Glass | 5.507
9.535 K, Crystal | 4.4
9.542 K, Glass | 6.116
9.931 K, Crystal | 4.904
9.941 K, Glass | 6.777
10 K, Crystal | 5
10.43 K, Crystal | 5.581
10.45 K, Glass | 7.669
11.04 K, Crystal | 6.447
11.06 K, Glass | 8.866
11.65 K, Crystal | 7.367
11.68 K, Glass | 9.609
12.26 K, Crystal | 8.338
12.33 K, Glass | 10.33
12.88 K, Crystal | 9.361
12.97 K, Glass | 11.38
13.49 K, Crystal | 10.43
13.59 K, Glass | 12.45
14.11 K, Crystal | 11.52
14.22 K, Glass | 13.57
14.73 K, Crystal | 12.65
14.85 K, Glass | 14.68
15 K, Crystal | 13.15
15.46 K, Crystal | 14.04
15.59 K, Glass | 16.03
16.3 K, Crystal | 15.65
16.44 K, Glass | 17.61
17.14 K, Crystal | 17.33
17.29 K, Glass | 19.2
17.98 K, Crystal | 19.01
18.14 K, Glass | 20.83
18.82 K, Crystal | 20.74
18.99 K, Glass | 22.44
19.66 K, Crystal | 22.48
19.84 K, Glass | 24.05
20 K, Crystal | 23.22
20.8 K, Crystal | 24.92
20.98 K, Glass | 26.32
22.23 K, Crystal | 27.96
22.44 K, Glass | 29.08
23.67 K, Crystal | 30.95
23.89 K, Glass | 31.88
25 K, Crystal | 33.71
25.11 K, Crystal | 33.93
25.34 K, Glass | 34.61
26.55 K, Crystal | 36.89
26.79 K, Glass | 37.3
28 K, Crystal | 39.85
28.25 K, Glass | 39.98
29.46 K, Crystal | 42.71
29.71 K, Glass | 42.64
30 K, Crystal | 43.79
30.91 K, Crystal | 45.58
31.17 K, Glass | 45.28
32.37 K, Crystal | 48.31
32.64 K, Glass | 47.85
33.83 K, Crystal | 50.92
34.1 K, Glass | 50.34
35 K, Crystal | 52.97
35.29 K, Crystal | 53.48
35.56 K, Glass | 52.74
36.75 K, Crystal | 55.93
37.02 K, Glass | 55.06
38.21 K, Crystal | 58.33
38.48 K, Glass | 57.36
39.67 K, Crystal | 60.64
39.95 K, Glass | 59.57
40 K, Crystal | 61.09
41.38 K, Crystal | 63.18
41.66 K, Glass | 62.09
43.35 K, Crystal | 66.08
43.62 K, Glass | 64.96
45 K, Crystal | 68.34
45.33 K, Crystal | 68.81
45.59 K, Glass | 67.7
47.31 K, Crystal | 71.45
47.56 K, Glass | 70.47
49.28 K, Crystal | 73.96
49.53 K, Glass | 73.04
50 K, Crystal | 74.81
51.25 K, Crystal | 76.33
51.5 K, Glass | 75.54
53.22 K, Crystal | 78.7
53.47 K, Glass | 77.99
55.2 K, Crystal | 80.87
55.43 K, Glass | 80.39
57.18 K, Crystal | 82.96
57.4 K, Glass | 82.69
59.15 K, Crystal | 84.96
59.37 K, Glass | 85.02
60 K, Crystal | 85.89
61.12 K, Crystal | 87.04
61.34 K, Glass | 87.33
63.1 K, Crystal | 89.03
63.31 K, Glass | 89.56
65.08 K, Crystal | 90.98
65.29 K, Glass | 91.73
67.06 K, Crystal | 92.73
67.27 K, Glass | 93.78
69.04 K, Crystal | 94.46
69.25 K, Glass | 95.85
70 K, Crystal | 95.2
71.02 K, Crystal | 96.12
71.23 K, Glass | 97.82
73.01 K, Crystal | 97.71
73.21 K, Glass | 99.78
75 K, Crystal | 99.35
75.2 K, Glass | 101.73
76.99 K, Crystal | 101.08
77.19 K, Glass | 103.84
78.99 K, Crystal | 102.78
79.19 K, Glass | 105.86
79.88 K, Crystal | 103.13
80 K, Crystal | 103.3
80.98 K, Crystal | 104.4
81.18 K, Glass | 107.71
81.99 K, Glass | 108.36
82.98 K, Crystal | 105.64
83.34 K, Crystal | 105.95
84.53 K, Glass | 110.36
84.99 K, Crystal | 106.91
85.34 K, Crystal | 107.22
86.53 K, Glass | 112.03
87.34 K, Crystal | 108.66
88.52 K, Glass | 113.8
89.34 K, Crystal | 110.09
90 K, Crystal | 110.5
90.52 K, Glass | 115.58
91.34 K, Crystal | 111.54
92.52 K, Glass | 117.14
93.34 K, Crystal | 112.75
94.51 K, Glass | 118.71
95.34 K, Crystal | 114.08
96.52 K, Glass | 120.45
97.35 K, Crystal | 115.46
98.52 K, Glass | 121.83
99.35 K, Crystal | 116.72
100 K, Crystal | 117.1
100.53 K, Glass | 123.29
101.36 K, Crystal | 118.12
102.54 K, Glass | 125.09
103.37 K, Crystal | 119.58
104.55 K, Glass | 126.48
105.39 K, Crystal | 120.44
106.56 K, Glass | 127.9
107.41 K, Crystal | 121.58
108.57 K, Glass | 129.45
109.43 K, Crystal | 122.78
110 K, Crystal | 123.1
110.59 K, Glass | 130.89
111.44 K, Crystal | 123.99
112.61 K, Glass | 132.26
113.47 K, Crystal | 125.16
114.64 K, Glass | 133.7
115.5 K, Crystal | 126.62
116.67 K, Glass | 135.05
117.53 K, Crystal | 127.63
118.69 K, Glass | 136.36
119.57 K, Crystal | 128.57
120 K, Crystal | 128.8
120.72 K, Glass | 137.61
121.6 K, Crystal | 129.71
